This note sets out measurements from patent US8008540B2, “Transgenic non-human animal for use in research models for studying Parkinson's disease” (Kampavata AB, priority 2004, dated 2011).

The assay concerns homozygous knockout mice (+/DAT-cre; Tfam^loxP/Tfam^loxP). Nature of the assay: L-DOPA treatment, open field activity cages (locomotion and rearing). The assay is classed as in vivo, mouse. As to the method:
Open field activity was examined in automated activity cages. This consisted of Plexiglas boxes (35×35×18 cm) with a lower and a higher row of infrared sensitive photocells and a microcomputer registering interruption of photocell beams. Animals were tested during the light phase of the light-dark cycle, between 9:00 and 13:00 h. Locomotor activity was registered when animals interrupted the lower row of photocells and rearing was registered when the higher row was interrupted. Animals were individually placed gently in the open field arena and remained there during 60 min. Locomotion and rearing counts were registered every 10 min. For the L-DOPA treatment, spontaneous locomotion and rearing were measured in activity cages as above. Animals were then given i.p. injections of L-DOPA combined with the peripheral dopa decarboxylase inhibitor benzerazide (Madopark 20 mg/kg in PBS; Roche) or PBS and were then immediately put back into the activity cages for another 60 minutes of recording. The scoring of counts was given as mean+/−SEM. Statistical significance was tested using 2-way ANOVA analysis. The open field box was cleaned with 70% alcohol after each test.

Where [1] appears, read: 20 and 30 week old homozygous knockout mice, L-DOPA 20 mg/kg i.p. vs saline, 60 min recording.

“Also recorded” adds a separate entry of the source.

Take `N[C@@H](Cc1ccc(O)c(O)c1)C(=O)O` [L-DOPA]: where the note is “20 and 30 week old homozygous knockout mice”, the motor performance result was “improved motor performance”. Under setting [1], the locomotion entry is listed as “increased locomotion” and the rearing entry is reported as “increase in rearing was similar; also recorded: increase of rearing”. Also, under “Parkinson mouse model, L-DOPA treatment”, the progressive movement disorder entry is recorded as “partially reversed”. Also, under “older (30 week old) homozygous knockout mice”, the “locomotor response, course over time” value was “abruptly terminated”. Under “younger (20 week old) homozygous knockout mice, identical L-DOPA dose”, the “locomotion response, younger vs older mice” value was “more pronounced and longer lasting locomotion response; also recorded: greater locomotion response”.
